Consider one compound from ChEMBL document CHEMBL1201862, “PubChem BioAssay data set” (2004).

Assay in all cases: DTP human tumour cell line panel, 48 h
Assay [1] concerns SF-539.
Assay [2] has as its system KM12.
Assay [3] deals with A498.
Assay [4] relates to M14.
For assay [5], the system named is NCI-H460.
Assay [6] concerns OVCAR-4.
Assay [7] deals with UO-31.
Assay [8] concerns MDA-MB-231.
The test system of assay [9] is SF-295.
Assay [10] deals with SR.
Assay [11] deals with COLO 205.
In assay [12] the test system is SF-268.
In assay [13] the test system is ACHN.
Assay [14] has as its system HT-29.
The subject of assay [15] is NCI-H23.
The subject of assay [16] is NCI/ADR-RES.
For assay [17], the system named is K562.
In assay [18] the test system is SK-MEL-28.
The test system of assay [19] is CAKI-1.
The subject of assay [20] is IGROV-1.

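These data come from cells grown in 96-well plates and exposed to compound for 48 hours at five concentrations. GI50 = concentration required for 50% inhibition of growth.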 The source made the active and inactive calls. No stated cut-off is given here; in the data, active = GI50 up to about 1.1 µM and inactive = higher.

In the case of `CC(=O)Oc1ccccc1/C=C/C(=O)/C=C/c1ccccc1OC(C)=O`, the GI50 (as a rule, the concentration that inhibits growth by half) in assay [1] is 1740 nM (inactive); in assay [2], 1090 nM (active); in assay [3], 2080 nM (inactive); in assay [4], 1950 nM (inactive); in [5] it was 2050 nM (inactive); in assay [6] it was 2380 nM (inactive). In addition, the GI50 in [7] was 1680 nM (inactive); in [8], 2660 nM (inactive); in [9] it was 2260 nM (inactive); in [10] it was 867 nM (active); in assay [11], 1890 nM (inactive); in assay [12], 1710 nM (inactive). Besides, the GI50 was 1800 nM (inactive) in [13]; 1940 nM (inactive) in assay [14]; 1730 nM (inactive) in assay [15]; 3330 nM (inactive) in assay [16]; 429 nM (active) in assay [17]; 1970 nM (inactive) in [18]. Besides, the figures for the GI50 in assay [19] and in assay [20] were 3750 nM (inactive) and 2000 nM (inactive), respectively.
